Results on seven molecules are retold here after patent publication US20220000971A1, “METHODS AND COMPOUNDS FOR TARGETING SORTILIN RECEPTORS AND INHIBITING VASCULOGENIC MIMICRY” (TRANSFERT PLUS, S.E.C., priority 2018, published 2022).

“Also recorded” adds a separate entry of the source. Where a SMILES comes first, the peptide text is derived from it. Where no end group is shown, it is not given here. [ ]: non-standard residue; d: D form. The star is where a group is joined. X2 = COc1cccc2c1C(=O)c1c(O)c3c(c(O)c1C2=O)C[C@@](O)(C(=O)COC(=O)CC(C)(C)CC(=O)*)C[C@@H]3O[C@H]1C[C@H](N)[C@H](O)[C@H](C)O1; Nle = CCCC[C@H](N)C(=O)O

For data set [1], the system named is SK-Hep-1 hepatocellular carcinoma cells. Conditions: Curcumin 3-30 μM, dose-dependent; cited from earlier work.
For data set [2], the system named is ES-2 ovarian cancer cells. Briefly: In vitro vasculogenic mimicry, Matrigel tube formation assay (ES-2). Particulars: for inhibition of 3D-tubular structures (vasculogenic mimicry): ES-2 seeded on Matrigel, increasing concentrations; for effect on vasculogenic mimicry inhibition caused by KBB106: competitor added to KBB106. Type of data set: cell-based, human.
Data set [3] concerns MDA-MB-231 cells. Kind of data set: Real-time cell migration, xCELLigence (MDA-MB-231). Type of data set: cell-based. The method, then:
(§1) In vitro vasculogenic mimicry of cancer cells was assessed using a Matrigel tube formation assay. In brief, each well of a 96-well plate was pre-coated with Matrigel. ES-2 ovarian cancer or MDA-MB-231 TNBC cell suspensions were seeded on top of Matrigel. 3D-tubular structures were analyzed and quantified using Wimasis Analysis software. Real-time cell migration was evaluated using the ×CELLigence system. Sortilin gene silencing was performed with specific siRNA. Effects of Doxorubicin-KA-peptide conjugate (DoxKA) KBA-106 represented by formula Acetyl-GVRAK(doxorubicin)AGVRN(Nle)FK(doxorubicin)SESY (Formula (XXVIII)) and Docetaxel-KA-peptide conjugate (DoceKA) represented by formula Acetyl-GVRAK(docetaxel)AGVRN(Nle)FK(docetaxel)SESY (Formula (XXIII)) targeting Sortilin on vasculogenic mimicry and cell migration were determined.
MDA-MB-231 cells were used as a TNBC cell model for in vitro and in vivo xenograft (CD1 nude mice) assays. Cell migration was assessed using the ×CELLigence real-time system, whereas MTT assay was used for cell proliferation analysis. Apoptosis biomarkers expression was assessed by immunoblotting.

The test system of data set [4] is ES-2 ovarian cancer cells. Kind of data set: Real-time cell migration, xCELLigence (ES-2). Type of data set: cell-based, human. The method, then:
as §1

Data set [5] deals with ES-2 ovarian cancer cell line. Kind of data set: Intracellular delivery (uptake) of DoxKA, ES-2. In kind it is cell-based, human. Particulars: Sortilin silencing or ligand competition. The method, then:
(§2) As a proof-of-concept, Doxorubicin was conjugated to a Sortilin binding peptide (KA-peptide). In vitro, intracellular delivery of the Doxorubicin-KA-peptide conjugate (DoxKA) KBB-106 represented by formula Acetyl-GVRAK(doxorubicin)AGVRN(Nle)FK(doxorubicin)SESY (Formula (XXVIII)) was assessed in ES-2 and SKOV-3 ovarian cancer cell line models using flow cytometry and fluorescent microscopy. Sortilin gene silencing was performed with specific siRNA. DoxKA efficacy and safety were evaluated in vivo using ES-2 (CD1 nude mice) and SKOV-3 (athymic mice) subcutaneous xenograft models.

Data set [6] has as its system SKOV-3 ovarian cancer cell line. Briefly: Intracellular delivery (uptake) of DoxKA, SKOV-3. Type of data set: cell-based. Conditions: Sortilin silencing or ligand competition. The method, then:
as §2

The target in data set [7] is T1, P-glycoprotein (P-gp) efflux pump (Homo sapiens, UniProt P08183).
T1 construct: expressed in transfected cells; host or cells: MDCK-MDR1 cells
Briefly: Uptake in MDCK-MDR1 cells overexpressing P-gp. Type of data set: in vitro ADME. Conditions: with P-gp inhibitor Cyclosporin A.

Data set [8] concerns human ovarian tumor xenografts. Kind of data set: DoxKA efficacy and safety in ES-2 and SKOV-3 subcutaneous xenograft models. Type of data set: in vivo, mice. The method, then:
as §2

Data set [9] concerns the target T2, Sortilin receptor (Homo sapiens, UniProt Q99523).
T2 construct: endogenous in cells; host or cells: ES-2 human ovarian cancer cells
T2 sequence (Q99523 78-831): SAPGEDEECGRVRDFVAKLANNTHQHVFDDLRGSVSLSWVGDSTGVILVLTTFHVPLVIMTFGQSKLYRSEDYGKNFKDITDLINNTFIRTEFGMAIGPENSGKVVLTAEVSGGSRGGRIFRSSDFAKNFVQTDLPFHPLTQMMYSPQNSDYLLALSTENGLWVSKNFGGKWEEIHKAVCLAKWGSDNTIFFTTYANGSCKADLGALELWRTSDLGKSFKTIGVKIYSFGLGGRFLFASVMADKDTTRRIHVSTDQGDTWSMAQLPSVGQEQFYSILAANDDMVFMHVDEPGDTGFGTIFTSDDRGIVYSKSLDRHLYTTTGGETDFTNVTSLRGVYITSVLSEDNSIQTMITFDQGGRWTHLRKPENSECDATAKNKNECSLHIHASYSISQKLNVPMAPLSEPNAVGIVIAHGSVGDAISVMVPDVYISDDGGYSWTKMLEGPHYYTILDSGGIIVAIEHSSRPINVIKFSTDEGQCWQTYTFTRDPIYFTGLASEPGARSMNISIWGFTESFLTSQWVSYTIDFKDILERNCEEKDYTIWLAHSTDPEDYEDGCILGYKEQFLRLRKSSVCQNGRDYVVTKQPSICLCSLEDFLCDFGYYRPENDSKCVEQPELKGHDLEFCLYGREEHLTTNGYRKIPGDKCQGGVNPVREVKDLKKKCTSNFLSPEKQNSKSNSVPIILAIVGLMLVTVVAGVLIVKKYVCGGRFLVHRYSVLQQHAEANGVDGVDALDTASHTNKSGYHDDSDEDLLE
Kind of data set: Cell surface binding assay with anti-Sortilin-Alexa488. Conditions: antibody 1 μg/ml, 30 minutes; ES-2 cells; competitor present.
Protocol: Labeling of anti-Sortilin antibody was performed with the Alexa Fluor 488 protein labeling kit from Invitrogen according to manufacturer's instructions.

The subject of data set [10] is MDA-MB-231 cells. Briefly: Cell death / apoptosis (Annexin V-FITC/PI). Type of data set: cell-based. Conditions: SORT1 ligand competition.
Protocol: MDA-MB-231 cells treated for 5 hours with control (vehicle) or with increasing concentrations of Docetaxel or DoceKA. Cells were then harvested and the rate of apoptosis was determined following staining with Annexin V-FITC and propidium iodide (PI). Cells were analyzed by flow cytometry.
Data set [11] concerns the target T3, Sortilin receptor (human, UniProt Q99523 78-831).
T3 construct: whole, on cells; also called SORT1
T3 sequence (looked up): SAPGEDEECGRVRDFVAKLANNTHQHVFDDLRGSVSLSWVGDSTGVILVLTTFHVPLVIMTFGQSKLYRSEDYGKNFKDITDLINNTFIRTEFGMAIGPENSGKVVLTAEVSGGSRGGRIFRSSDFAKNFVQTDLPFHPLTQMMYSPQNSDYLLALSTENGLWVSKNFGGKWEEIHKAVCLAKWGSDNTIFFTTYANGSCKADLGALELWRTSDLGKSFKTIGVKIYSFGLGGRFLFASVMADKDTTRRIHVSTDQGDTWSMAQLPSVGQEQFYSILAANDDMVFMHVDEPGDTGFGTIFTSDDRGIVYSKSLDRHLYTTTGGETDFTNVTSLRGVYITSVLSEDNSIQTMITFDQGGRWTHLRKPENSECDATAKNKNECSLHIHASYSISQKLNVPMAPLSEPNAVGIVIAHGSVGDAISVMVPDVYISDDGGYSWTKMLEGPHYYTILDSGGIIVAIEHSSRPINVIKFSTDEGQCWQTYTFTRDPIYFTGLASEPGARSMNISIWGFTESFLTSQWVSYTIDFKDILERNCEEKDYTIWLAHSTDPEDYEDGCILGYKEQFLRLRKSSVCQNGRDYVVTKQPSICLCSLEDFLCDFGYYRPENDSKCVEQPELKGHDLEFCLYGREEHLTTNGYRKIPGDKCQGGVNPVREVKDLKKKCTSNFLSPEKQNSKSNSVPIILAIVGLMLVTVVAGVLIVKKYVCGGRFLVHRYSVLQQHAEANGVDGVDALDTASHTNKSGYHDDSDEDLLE
Briefly: inferred from the vasculogenic mimicry assay of ES-2 cells, excess KBP106 against KBB106.

T1 sequence (P08183 whole entry): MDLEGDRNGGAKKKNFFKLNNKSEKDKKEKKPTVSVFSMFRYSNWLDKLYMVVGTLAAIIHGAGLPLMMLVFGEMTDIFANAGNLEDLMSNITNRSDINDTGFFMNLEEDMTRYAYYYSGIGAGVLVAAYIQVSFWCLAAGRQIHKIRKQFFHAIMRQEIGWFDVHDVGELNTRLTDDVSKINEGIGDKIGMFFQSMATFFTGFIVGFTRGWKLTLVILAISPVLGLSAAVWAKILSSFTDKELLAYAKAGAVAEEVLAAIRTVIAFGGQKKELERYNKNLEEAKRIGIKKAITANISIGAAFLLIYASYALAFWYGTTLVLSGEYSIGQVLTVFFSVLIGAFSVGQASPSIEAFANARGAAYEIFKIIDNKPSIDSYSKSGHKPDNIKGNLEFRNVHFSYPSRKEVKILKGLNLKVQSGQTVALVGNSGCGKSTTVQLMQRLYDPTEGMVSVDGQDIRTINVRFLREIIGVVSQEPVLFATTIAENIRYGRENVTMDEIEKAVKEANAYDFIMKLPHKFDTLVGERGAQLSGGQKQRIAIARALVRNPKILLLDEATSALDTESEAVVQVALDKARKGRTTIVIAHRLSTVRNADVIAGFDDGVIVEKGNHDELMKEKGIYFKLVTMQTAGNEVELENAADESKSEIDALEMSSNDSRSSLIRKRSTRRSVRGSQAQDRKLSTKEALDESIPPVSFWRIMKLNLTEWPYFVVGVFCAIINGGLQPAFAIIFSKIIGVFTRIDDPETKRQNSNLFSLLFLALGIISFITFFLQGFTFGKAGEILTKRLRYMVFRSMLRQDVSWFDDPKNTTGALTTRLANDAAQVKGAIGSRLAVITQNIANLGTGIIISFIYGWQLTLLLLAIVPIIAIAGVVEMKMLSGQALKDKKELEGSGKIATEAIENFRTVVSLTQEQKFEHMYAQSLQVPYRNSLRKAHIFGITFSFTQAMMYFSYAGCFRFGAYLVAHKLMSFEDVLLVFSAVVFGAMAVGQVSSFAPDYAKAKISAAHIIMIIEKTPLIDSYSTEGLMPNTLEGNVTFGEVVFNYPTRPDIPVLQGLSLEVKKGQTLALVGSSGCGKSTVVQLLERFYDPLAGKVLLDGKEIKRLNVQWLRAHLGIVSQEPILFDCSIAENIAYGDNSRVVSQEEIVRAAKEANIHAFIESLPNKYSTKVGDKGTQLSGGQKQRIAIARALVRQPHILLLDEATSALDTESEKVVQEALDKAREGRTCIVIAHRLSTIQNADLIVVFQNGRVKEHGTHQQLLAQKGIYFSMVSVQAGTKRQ

Turning to `COc1cc(/C=C/C(=O)CC(=O)/C=C/c2ccc(O)c(OC)c2)ccc1O` [Curcumin, diferuloylmethane], in [1], the “inhibition of tube formation” value was 18-92%.
With `CCCC[C@H](NC(=O)[C@H](CC(N)=O)NC(=O)[C@H](CCCNC(=N)N)NC(=O)[C@@H](NC(=O)CNC(=O)[C@H](C)NC(=O)[C@H](CCCCNC(=O)CC(C)(C)CC(=O)OCC(=O)[C@]1(O)Cc2c(O)c3c(c(O)c2[C@@H](O[C@H]2C[C@H](N)[C@H](O)[C@H](C)O2)C1)C(=O)c1c(OC)cccc1C3=O)NC(=O)[C@H](C)NC(=O)[C@H](CCCNC(=N)N)NC(=O)[C@@H](NC(=O)CNC(C)=O)C(C)C)C(C)C)C(=O)N[C@@H](Cc1ccccc1)C(=O)N[C@@H](CCCCNC(=O)CC(C)(C)CC(=O)OCC(=O)[C@]1(O)Cc2c(O)c3c(c(O)c2[C@@H](O[C@H]2C[C@H](N)[C@H](O)[C@H](C)O2)C1)C(=O)c1c(OC)cccc1C3=O)C(=O)N[C@@H](CO)C(=O)N[C@@H](CCC(=O)O)C(=O)N[C@@H](CO)C(=O)N[C@@H](Cc1ccc(O)cc1)C(=O)O` [DoxKA, Acetyl-GVRAK(doxorubicin)AGVRN(Nle)FK(doxorubicin)SESY] (Ac-GVRAK(X2)AGVRN[Nle]FK(X2)SESY-OH), the “concentration at which total number of loops and total tube length are inhibited” value in [2] (ES-2 on Matrigel) is given as “inhibited at low nM concentrations”. Also, the “vasculogenic mimicry inhibition compared to unconjugated drug” value in data set [2] (ES-2 on Matrigel, 12 hrs, equivalent concentration of free drug (Docetaxel 600 pM)) is recorded as “stronger inhibition of vasculogenic mimicry than unconjugated free drugs”. Further, the figures for the “inhibition of 3D-tubular structures (vasculogenic mimicry)” value in [2] and in [2] (listed as KBB106) were “strongly inhibited; also recorded: inhibited” and “vascukogenic mimicry inhibition”, respectively. The “IC50 values for vasculogenic mimicry inhibition” value in [2] (Example 2, ovarian cancer and TNBC cells) is given as “low nM to pM”. The cell migration result in data set [3] and in data set [4] was “inhibited” in each case. The uptake result in data set [5] was “reduced when Sortilin expression was specifically silenced or upon competition with the Sortilin ligands Neurotensin and Progranulin”; in data set [6], “reduced when Sortilin expression was specifically silenced or upon competition with the Sortilin ligands Neurotensin and Progranulin”. In addition, the “uptake in P-gp overexpressing cells” value in data set [7] is “unaffected by the P-gp inhibitor Cyclosporin A”. Moreover, the “inhibition of tumor xenografts growth compared to unconjugated Doxorubicin” value in data set [8] (equivalent dose) is reported as “more potent inhibition”. The “tolerability compared to unconjugated Doxorubicin” value in [8] (equivalent dose) is “better tolerated (absence of leukopenia and neutropenia)”. Moreover, in data set [8] (in vivo, heart and ovary), the “accumulation in healthy tissues compared to Doxorubicin” value was “decreased accumulation in healthy tissues such as heart and ovary”.
“Acetyl-GVRAKAGVRN(Nle)FKSESY (Ac-GVRAKAGVRN[Nle]FKSESY) [KBP106]”: in data set [2] (ES-2), the “effect on vasculogenic mimicry inhibition caused by KBB106” value is “prevents vascukogenic mimicry inhibition by KBB106”. Also, the “effect of peptide alone on vasculogenic mimicry” value in data set [2] (up to 50 μM, ES-2, 24 hours) is “no significant effect”. Further, the “effect on binding of anti-Sortilin-Alexa488 at the cell surface” value (from here on “effect on binding”) in data set [9] is on record as “strongly reduced the binding”.
With “Acetyl-GVRAKAGVRN(Nle)FKSESYC(aldoxorubicin) [AldoxKA]”, in data set [2], the “inhibition of 3D-tubular structures (vasculogenic mimicry)” value is on record as “inhibited”.
Regarding “Acetyl-YKSLRRKAPRWDAPLRDPALRQLL (Ac-YKSLRRKAPRWDAPLRDPALRQLL) [KBP201]”, in data set [9], the “effect on binding” value is “strongly reduced the binding”.
With “progranulin: Sortilin ligand [reference compound]”, the “effect of Sortilin ligand alone on vasculogenic mimicry” value in [2] (ES-2, 12 hours) is “do not effect vasculogenic mimicry”. Moreover, the “effect on vasculogenic mimicry inhibition caused by KBB106” value in [2] (ES-2) is “reverses vasculogenic mimicry inhibition”. Besides, the “effect on binding” value in data set [9] was “inhibited”. In [10], the “effect on apoptotic and anti-migratory effects of DoceKA” value is reported as “reversed”.

B1: KBP-106: Acetyl-GVRAKAGVRN(Nle)FKSESY (peptide)
peptide: Ac-GVRAKAGVRN[Nle]FKSESY
notes: also called Katana peptide; KA-peptide
Consider B1, for which the binding result in data set [11] was “binds”.
